Data from ChEMBL document CHEMBL1201862, “PubChem BioAssay data set” (2004).
Structures can show the parent of a compound that is named as a salt. The source made the active and inactive calls.

Assays:
[1] = Dd2 parasite growth inhibition in erythrocytes – SYBR Green, dry powder samples, set 4, dose response (AID 1159572); type: functional, cell-based
[2] = Dd2 parasite growth inhibition in erythrocytes – SYBR Green, dry powder samples, set 9, dose response (AID 1159568); type: functional, cell-based
[3] = viability of uninfected HEp-2 cells – cell-based, HTS, cytotoxicity control for RSV inhibitor project, dose response (AID 2410); type: functional; conditions: human respiratory syncytial virus
Cytochrome P450 1A2 = target: T1, Cytochrome P450 1A2 (Homo sapiens, UniProt P05177);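 also: PubChem cytochrome P450 panel assay, CYP1A2 panel member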
T1 sequence (P05177 whole entry): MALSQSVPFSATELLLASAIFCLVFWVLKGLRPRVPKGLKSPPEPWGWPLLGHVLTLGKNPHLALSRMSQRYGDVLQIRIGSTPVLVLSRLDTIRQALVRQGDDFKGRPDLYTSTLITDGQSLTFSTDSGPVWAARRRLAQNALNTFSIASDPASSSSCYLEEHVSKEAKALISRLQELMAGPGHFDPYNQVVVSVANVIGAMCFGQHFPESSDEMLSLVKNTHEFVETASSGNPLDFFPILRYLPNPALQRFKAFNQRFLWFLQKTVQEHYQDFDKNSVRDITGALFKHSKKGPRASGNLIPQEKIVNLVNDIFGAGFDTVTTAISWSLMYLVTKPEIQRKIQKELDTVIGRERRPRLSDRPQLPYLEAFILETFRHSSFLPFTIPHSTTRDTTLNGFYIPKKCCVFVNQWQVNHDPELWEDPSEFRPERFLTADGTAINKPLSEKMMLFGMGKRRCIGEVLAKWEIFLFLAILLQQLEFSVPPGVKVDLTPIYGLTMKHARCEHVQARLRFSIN

[4] = A Cell-Based Confirmatory Screen for Compounds that Inhibit VEEV, TC-83 (2).; type: functional
Vero [5] = experiment: cells; type: functional; conditions: Chlorocebus sabaeus
Cytochrome P450 3A4 = Cytochrome P450 3A4 (Homo sapiens, UniProt P08684);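 also: CYP3A4 tested as one member of a cytochrome P450 panel screen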
[6] = viability loss in Vero 76 cells – cell-based, set 2, cytotoxicity control, dose response (AID 602240); type: functional; conditions: Venezuelan equine encephalitis virus
Vero [7] = experiment: cells; type: functional, cell-based; conditions: Chlorocebus sabaeus
[8] = A Cell-Based Counter Screen testing Compounds that Inhibit VEEV TC-83, in strain KU V3526.; type: functional
[9] = general mammalian cell viability loss – activator set, cherry-pick, cytotoxicity control for miR-122 modulator project, dose response (AID 720690); type: functional, cell-based;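 also: HEK293T human cells scored for general mammalian cytotoxicity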
[10] = OVCAR8 cell viability loss – plate reader, dry powder samples, PAX8 project, dose response (AID 743197); type: functional, cell-based; conditions: OVCAR-8
[11] = general mammalian cell viability loss – inhibitor set, cherry-pick, set 2, cytotoxicity control for miR-122 modulator project, dose response (AID 720697); type: functional, cell-based
[12] = lung carcinoma cell viability loss – CellTiter-Glo luminescence, dry powder, set 17, dose response (AID 1117284); type: functional, cell-based; conditions: A549
Paired box protein Pax-8 = Paired box protein Pax-8 (Homo sapiens, UniProt Q06710); experiment: PAX8 transcriptional activity inhibition in RMG-I – RMG-I cells, luciferase, cherry-pick, dose response (AID 687027); type: functional, cell-based;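 also: luciferase reporter driven by Pax8 target thyroperoxidase promoter measured by SteadyGlo luminescence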
[13] = viability loss in A549 lung cells – cell-based, 24 h, CellTiter-Glo luminescence, cherry-picks, cytotoxicity control, dose response (AID 1053115); type: functional; conditions: A549, 24 h
[14] = general cell-killing toxicity readout – plate reader, dry powder samples, cytotoxicity control for PAX8 inhibitor project, dose response (AID 743021); type: functional, cell-based
[15] = Reduced DLD-1 viability, concentration-response, CellTiter-Glo luminescence (AID 1117352); type: functional
[16] = cytotoxicity toward HCT116 cells – cell-based, CellTiter-Glo luminescence, IC50, dose response (AID 1117332); type: functional; conditions: HCT-116
[17] = HCT116 cell viability decrease, GSK3B pretreatment – CellTiter-Glo, IC50, dose response (AID 1117339); type: functional; conditions: HCT-116
[18] = SNU-C1 cell viability reduction, dose response, CellTiter-Glo luminescence (AID 1117323); type: functional, cell-based
[19] = RKO cell viability reduction, dose response, CellTiter-Glo luminescence (AID 1117322); type: functional
[20] = cytotoxicity toward HT-29 cells – cell-based, CellTiter-Glo luminescence, IC50, dose response (AID 1117330); type: functional
[21] = cytotoxicity toward Colo320 cells – cell-based, CellTiter-Glo luminescence, IC50, dose response (AID 1117334); type: functional; conditions: COLO 320
[22] = CellTiter-Glo luminescence survival assay, SW480 colon tumor line, concentration-response curve, half-maximal inhibitory concentration (AID 1117338); type: functional
[23] = IC50 of Artemis nuclease activity blockers – biochemical, fluorescence intensity, dose response (AID 720701); type: functional;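 also: Artemis endonuclease enzyme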
[24] = cytotoxicity in MITF-independent A375 cells – cell-based, CellTiter-Glo luminescence, dry powder, set 4, counter-screen for MITF inhibitor project, dose response (AID 624364); type: functional; conditions: A-375;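 also: A375 melanoma cells are MITF independent so this is a counter screen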
[25] = MITF Measured in Cell-Based System Using Plate Reader - 2084-01_Inhibitor_Dose_DryPowder_Activity_Set6.; type: functional
[26] = inhibitors of TRPM1-promoter reporter in SK-MEL-5 – cell-based, luciferase, dry powder, set 9, MITF inhibitor project, dose response (AID 651588); type: functional
[27] = viability loss in MITF-independent A375 cells – cell-based, CellTiter-Glo luminescence, dry powder, set 2, counter-screen for MITF inhibitor project, dose response (AID 624489); type: functional; conditions: A-375;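 also: actives are compounds lowering A375 viability meaning general cytotoxicity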
[28] = cytotoxicity in MITF-independent A375 cells – cell-based, CellTiter-Glo luminescence, dry powder, set 9, counter-screen for MITF modulator project, dose response (AID 651591); type: functional; conditions: A-375
[29] = MITF Orthogonal Assay: SK-MEL-5 CTG Assay Measured in Cell-Based System Using Plate Reader - 2084-02_Inhibitor_Dose_DryPowder_Activity_Set5.; type: functional
[30] = MITF Orthogonal Assay: MALME3 CTG Assay Measured in Cell-Based System Using Plate Reader - 2084-04_Inhibitor_Dose_DryPowder_Activity_Set6.; type: functional; conditions: MALME-3
[31] = growth inhibition of SK-MEL-5 melanoma cells – cell-based, CellTiter-Glo luminescence, dry powder, set 8, orthogonal assay for MITF inhibitor project, dose response (AID 651586); type: functional
[32] = growth inhibition of MALME3 cells – cell-based, CellTiter-Glo luminescence, dry powder, set 5, orthogonal assay for MITF inhibitor project, dose response (AID 651584); type: functional; conditions: MALME-3
[33] = MITF Measured in Cell-Based System Using Plate Reader - 2084-01_Inhibitor_Dose_DryPowder_Activity_Set7.; type: functional
[34] = cytotoxicity in melanoma parental cells – cell-based, CellTiter-Glo, dry powder, set 6, MITF inhibitor project, dose response (AID 624429); type: functional; conditions: SK-MEL-5
[35] = viability loss in MITF-independent A375 cells – cell-based, CellTiter-Glo luminescence, dry powder, set 7, counter-screen for MITF inhibitor project, dose response (AID 624490); type: functional; conditions: A-375
[36] = viability loss in MITF-independent A375 cells – cell-based, CellTiter-Glo luminescence, dry powder, set 6, counter-screen for MITF inhibitor project, dose response (AID 624488); type: functional; conditions: A-375

Paired box protein Pax-8, sequence (Q06710 whole entry): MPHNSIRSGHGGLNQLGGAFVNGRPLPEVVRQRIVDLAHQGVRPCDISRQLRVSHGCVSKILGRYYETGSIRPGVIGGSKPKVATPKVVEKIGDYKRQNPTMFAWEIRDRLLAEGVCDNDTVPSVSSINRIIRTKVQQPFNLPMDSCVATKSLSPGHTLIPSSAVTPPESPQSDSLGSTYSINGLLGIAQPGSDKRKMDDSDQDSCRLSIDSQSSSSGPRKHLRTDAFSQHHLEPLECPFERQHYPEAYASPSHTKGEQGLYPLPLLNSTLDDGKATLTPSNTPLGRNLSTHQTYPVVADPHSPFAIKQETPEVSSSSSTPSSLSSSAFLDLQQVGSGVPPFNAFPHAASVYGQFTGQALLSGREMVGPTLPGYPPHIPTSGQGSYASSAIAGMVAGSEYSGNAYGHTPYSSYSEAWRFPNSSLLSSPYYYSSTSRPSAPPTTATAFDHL
Cytochrome P450 3A4, sequence (P08684 whole entry): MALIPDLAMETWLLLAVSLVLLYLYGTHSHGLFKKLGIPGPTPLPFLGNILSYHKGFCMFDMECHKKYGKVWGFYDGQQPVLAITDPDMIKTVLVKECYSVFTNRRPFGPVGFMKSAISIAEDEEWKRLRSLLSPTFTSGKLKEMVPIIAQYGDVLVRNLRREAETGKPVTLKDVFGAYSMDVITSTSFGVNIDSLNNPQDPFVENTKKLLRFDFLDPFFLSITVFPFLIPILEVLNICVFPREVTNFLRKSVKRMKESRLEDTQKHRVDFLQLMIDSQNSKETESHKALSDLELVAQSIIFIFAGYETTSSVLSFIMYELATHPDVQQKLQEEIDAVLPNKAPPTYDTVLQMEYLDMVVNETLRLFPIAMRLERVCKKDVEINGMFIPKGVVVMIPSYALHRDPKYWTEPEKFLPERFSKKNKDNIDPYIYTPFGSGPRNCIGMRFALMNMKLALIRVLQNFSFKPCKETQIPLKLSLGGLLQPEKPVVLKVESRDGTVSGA

CCC(=O)N1CC2(CCN(C(=O)Nc3ccccc3F)CC2)c2c([nH]c3cc(OC)ccc23)[C@@H]1CO
AC50 [1]: 0.294 µM (active) | AC50 [2]: 0.561 µM (active)

CCOC(=O)c1ccc(Nc2nc(=O)c3cccnc3s2)cc1
CC50 [3]: 22.4 µM (active) | AC50 (Cytochrome P450 1A2): 14.1 µM (inconclusive) | IC50 [4]: 10.8 µM (active) | CC50 (Vero [5]): > 25 µM (active) | IC50 (cells): 9.32 µM (active) | AC50 (Cytochrome P450 3A4): inconclusive | CC50 [6]: > 50 µM (active) | IC50 (Vero [7]): 6.32 µM (active) | IC50 [8]: 7.07 µM (active)

C[C@H](O)C#Cc1ccc2c(c1)O[C@@H](CN(C)Cc1ccc(-c3ccccc3)cc1)[C@@H](C)CN([C@H](C)CO)S2(=O)=O
AC50 [9]: 22.8 µM (active) | AC50 [10]: > 70 µM (inactive) | AC50 [11]: 21.6 µM (active) | AC50 [12]: > 52 µM (inactive) | AC50 (Paired box protein Pax-8): 4.57 µM (active) | AC50 [13]: 48.6 µM (active) | AC50 [14]: 46.3 µM (active)

CNS(=O)(=O)CCc1ccc2[nH]cc(C3CCN(C)CC3)c2c1 [NARATRIPTAN HYDROCHLORIDE]
IC50 [15]: > 20 µM (inactive) | IC50 [16]: > 20 µM (inactive) | IC50 [17]: 12.1 µM (inactive) | IC50 [18]: > 20 µM (inactive) | IC50 [19]: > 20 µM (inactive) | IC50 [20]: > 20 µM (inactive) | IC50 [21]: > 20 µM (inactive) | IC50 [22]: > 20 µM (inactive)

COc1ccc(/C=N/NC(=O)c2nc(-c3ccccc3)cc(-c3ccccc3)n2)cc1
IC50 [23]: > 20 µM (inactive)

CN1CCN(C2=C(NS(=O)(=O)c3ccc(Br)s3)C(=O)c3ccccc3C2=O)CC1
AC50 [24]: 65 µM (active) | AC50 [25]: 1.94 µM (active) | AC50 [26]: 8.02 µM (active) | AC50 [27]: 47.4 µM (active) | AC50 [28]: > 70 µM (inactive) | AC50 [29]: 11.2 µM (active) | AC50 [30]: 12 µM (active) | AC50 [31]: 36.8 µM (active) | AC50 [32]: 12 µM (active) | AC50 [33]: 2.26 µM (active) | AC50 [34]: 64.7 µM (active) | AC50 [35]: > 70 µM (inactive) | AC50 [36]: 26.3 µM (active)
